Assay results: ChEMBL document CHEMBL3217528, “Bicyclic imidazole-4-one derivatives: a new class of antagonists for the orphan G protein-coupled receptors GPR18 and GPR55” (Medchemcomm, 2014)
pIC50, pKi: −log10 of the molar value.

Legend:
[1] = target: T1, N-arachidonyl glycine receptor (Homo sapiens) (UniProt Q14330); test: Agonist activity at human GPR18 expressed in CHO cells assessed as induction of beta-arrestin recruitment by beta-galactosidase enzyme fragment complementation method relative to delta9-THC; format: cell-based; parameters: concentration or dose not given beside the values
T1 sequence (whole entry): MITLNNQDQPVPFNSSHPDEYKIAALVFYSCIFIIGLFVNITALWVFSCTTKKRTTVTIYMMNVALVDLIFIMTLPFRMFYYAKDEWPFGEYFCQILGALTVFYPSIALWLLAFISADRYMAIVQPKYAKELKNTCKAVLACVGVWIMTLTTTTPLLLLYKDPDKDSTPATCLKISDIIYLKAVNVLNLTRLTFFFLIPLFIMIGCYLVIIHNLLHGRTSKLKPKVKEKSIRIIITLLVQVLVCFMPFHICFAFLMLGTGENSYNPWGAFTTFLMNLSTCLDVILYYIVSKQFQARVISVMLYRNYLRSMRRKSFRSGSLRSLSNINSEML

Cannabinoid receptor 2 [2] = target: T2, Cannabinoid receptor 2 (Homo sapiens, UniProt P34972); test: Displacement of [3H]CP55,940 from human recombinant CB2 receptor expressed in HEK293 cells; format: cell-based
T2 sequence (P34972 whole entry): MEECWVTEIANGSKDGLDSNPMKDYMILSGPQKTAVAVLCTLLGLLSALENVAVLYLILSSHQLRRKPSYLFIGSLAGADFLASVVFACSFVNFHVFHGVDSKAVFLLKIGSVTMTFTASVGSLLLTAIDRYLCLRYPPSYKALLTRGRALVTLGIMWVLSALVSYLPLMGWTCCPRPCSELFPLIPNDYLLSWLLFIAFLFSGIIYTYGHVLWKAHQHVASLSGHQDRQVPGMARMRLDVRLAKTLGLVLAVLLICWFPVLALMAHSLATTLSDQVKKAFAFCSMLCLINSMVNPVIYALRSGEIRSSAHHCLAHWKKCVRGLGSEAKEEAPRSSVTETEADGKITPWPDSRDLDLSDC

Cannabinoid receptor 1 [3] = target: T3, Cannabinoid receptor 1 (Homo sapiens, UniProt P21554); test: Displacement of [3H]CP55,940 from human recombinant CB1 receptor expressed in CHO-K1 cells; format: cell-based
T3 sequence (P21554 whole entry, the tested form may be a part): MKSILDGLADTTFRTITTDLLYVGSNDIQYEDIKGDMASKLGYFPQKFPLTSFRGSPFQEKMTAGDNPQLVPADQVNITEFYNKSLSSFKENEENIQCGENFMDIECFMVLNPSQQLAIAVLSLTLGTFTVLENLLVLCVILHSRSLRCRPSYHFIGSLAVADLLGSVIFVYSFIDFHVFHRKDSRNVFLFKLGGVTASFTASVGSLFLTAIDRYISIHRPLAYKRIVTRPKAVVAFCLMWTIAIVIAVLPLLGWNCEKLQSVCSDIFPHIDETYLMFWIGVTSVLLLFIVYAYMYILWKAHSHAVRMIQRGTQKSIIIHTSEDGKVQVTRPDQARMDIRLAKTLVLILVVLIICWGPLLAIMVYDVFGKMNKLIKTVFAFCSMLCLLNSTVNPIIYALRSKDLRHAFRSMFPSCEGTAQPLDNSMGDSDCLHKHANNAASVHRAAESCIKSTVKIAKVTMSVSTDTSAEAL

[4] = target: T4, N-arachidonyl glycine receptor (Homo sapiens, UniProt Q14330); test: Antagonist activity against human GPR18 expressed in CHO cells assessed as reduction in delta9-THC-induced beta-arrestin recruitment by beta-galactosidase enzyme fragment complementation method; format: cell-based
T4 sequence (Q14330 whole entry): T1 sequence (whole entry)

Cannabinoid receptor 2 [5] = target: T2, Cannabinoid receptor 2; test: Displacement of [3H]CP55,940 from human recombinant CB2 receptor expressed in HEK293 cells at 10 uM; format: cell-based
Cannabinoid receptor 1 [6] = target: T3, Cannabinoid receptor 1; test: Displacement of [3H]CP55,940 from human recombinant CB1 receptor expressed in CHO-K1 cells at 10 uM; format: cell-based
[7] = target: T5, G-protein coupled receptor 55 (Homo sapiens, UniProt Q9Y2T6); test: Antagonist activity against human GPR55 expressed in CHO cells assessed as reduction in LPI-induced beta-arrestin recruitment at 10 uM by beta-galactosidase enzyme fragment complementation method; format: cell-based
T5 sequence (Q9Y2T6 whole entry, the tested form may be a part): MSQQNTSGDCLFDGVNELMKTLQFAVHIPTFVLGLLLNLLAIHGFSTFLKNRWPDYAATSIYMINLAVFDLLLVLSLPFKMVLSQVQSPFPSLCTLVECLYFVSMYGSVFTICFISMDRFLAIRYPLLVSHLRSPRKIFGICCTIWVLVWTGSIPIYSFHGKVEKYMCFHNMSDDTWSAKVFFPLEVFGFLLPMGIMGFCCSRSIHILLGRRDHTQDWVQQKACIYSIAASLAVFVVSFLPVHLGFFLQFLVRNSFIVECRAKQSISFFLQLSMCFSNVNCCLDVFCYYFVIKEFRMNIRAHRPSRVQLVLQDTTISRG

[8] = target: T5, G-protein coupled receptor 55; test: Agonist activity at human GPR55 expressed in CHO cells assessed as induction of LPI-induced beta-arrestin recruitment by beta-galactosidase enzyme fragment complementation method relative to LPI; format: cell-based; parameters: concentration or dose not given beside the values
[9] = target: T1, N-arachidonyl glycine receptor (Homo sapiens); test: Antagonist activity against human GPR18 expressed in CHO cells assessed as reduction in delta9-THC-induced beta-arrestin recruitment at 10 uM by beta-galactosidase enzyme fragment complementation method; format: cell-based
[10] = target: T5, G-protein coupled receptor 55; test: Antagonist activity against human GPR55 expressed in CHO cells assessed as reduction in LPI-induced beta-arrestin recruitment by beta-galactosidase enzyme fragment complementation method; format: cell-based
Cannabinoid receptor 1 [11] = target: Cannabinoid receptor 1 (Rattus norvegicus, UniProt P20272); test: Displacement of [3H]CP55,940 from CB1 receptor in rat brain cortical membranes; format: cell membranes
Chain of Cannabinoid receptor 1 (Rattus norvegicus, UniProt P20272) (P20272 whole entry): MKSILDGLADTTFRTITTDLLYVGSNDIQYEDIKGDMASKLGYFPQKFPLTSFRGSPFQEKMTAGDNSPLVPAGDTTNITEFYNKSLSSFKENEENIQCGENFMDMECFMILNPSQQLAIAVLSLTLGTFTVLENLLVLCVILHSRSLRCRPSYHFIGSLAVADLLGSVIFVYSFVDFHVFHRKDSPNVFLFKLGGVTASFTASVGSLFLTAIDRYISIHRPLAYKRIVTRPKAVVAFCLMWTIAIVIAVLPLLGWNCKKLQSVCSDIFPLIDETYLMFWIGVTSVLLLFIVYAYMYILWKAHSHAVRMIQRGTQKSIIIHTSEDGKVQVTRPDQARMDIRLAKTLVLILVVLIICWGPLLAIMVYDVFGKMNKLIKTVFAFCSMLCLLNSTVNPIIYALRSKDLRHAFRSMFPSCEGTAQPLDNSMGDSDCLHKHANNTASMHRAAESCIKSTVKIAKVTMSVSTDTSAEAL

[12] = target: Cannabinoid receptor 1 (Rattus norvegicus) (UniProt P20272); test: Displacement of [3H]CP55,940 from CB1 receptor in rat brain cortical membranes at 10 uM; format: cell membranes
Chain of Cannabinoid receptor 1 (Rattus norvegicus) (P20272 whole entry): as above

Structure (SMILES)	Activity [1]	pKi (Cannabinoid receptor 2 [2])	pKi (Cannabinoid receptor 1 [3])	pIC50 [4]	inhibition (Cannabinoid receptor 2 [5])	inhibition (Cannabinoid receptor 1 [6])	inhibition [7]	Activity [8]	inhibition [9]	pIC50 [10]	pKi (Cannabinoid receptor 1 [11])	inhibition [12]
O=C1/C(=C/c2c(Cl)cccc2Cl)N=C2SCCCN12	12%	< 5.00	< 5.00	< 5.00	4%	14%	0%	15%	0%	< 5.00	–	–
COc1ccc(/C=C2\N=C3SCCCN3C2=O)cc1OC	0%	< 5.00	< 5.00	< 5.00	18%	7%	12%	6%	2%	< 5.00	< 5.00	3%
COc1cccc(/C=C2\N=C3SCCCN3C2=O)c1OC	10%	< 5.00	< 5.00	< 5.00	15%	18%	–	0%	10%	4.79	–	–
O=C1/C(=C/c2ccc([N+](=O)[O-])cc2)N=C2SCCCN12	0%	< 5.00	< 5.00	< 5.00	20%	0%	12%	39%	20%	< 5.00	< 5.00	23%
O=C1N=C2SCCN2C1(c1ccccc1)c1ccccc1	21%	< 5.00	< 5.00	< 5.00	6%	30%	31%	50%	0%	< 5.00	< 5.00	13%
CCOC(=O)C1CN2C(=O)C(c3ccccc3)(c3ccccc3)N=C2S1 (stereo not given)	11%	< 5.00	< 5.00	< 5.00	0%	2%	10%	39%	0%	< 5.00	< 5.00	38%
C/C(=C1/N=C2SCCCCN2C1=O)c1ccccc1	14%	< 5.00	< 5.00	< 5.00	17%	10%	25%	1%	4%	< 5.00	< 5.00	3%
CCOC(=O)COc1cccc(/C=C2\N=C3SCCCCN3C2=O)c1	19%	< 5.00	5.32	< 5.00	39%	–	4%	0%	22%	< 5.00	< 5.00	27%
O=C1/C(=C/c2ccc(Cl)cc2)N=C2SCCCN12	13%	< 5.00	< 5.00	< 5.00	23%	25%	35%	0%	18%	< 5.00	< 5.00	15%
COc1ccc(/C=C2\N=C3SCCCN3C2=O)cc1	0%	< 5.00	< 5.00	< 5.00	6%	39%	16%	37%	10%	< 5.00	< 5.00	5%
O=C1N2CCSC2=NC1(c1ccccc1)c1ccccc1	12%	< 5.00	4.68	< 5.00	3%	–	39%	50%	12%	< 5.00	< 5.00	15%
O=C(Oc1cccc(/C=C2\N=C3SCCCN3C2=O)c1)c1ccc(Cl)cc1	0%	< 5.00	< 5.00	4.84	0%	12%	16%	31%	–	< 5.00	< 5.00	24%
O=C1/C(=C/c2ccc(Cl)cc2Cl)N=C2SCCCN12	0%	< 5.00	< 5.00	< 5.00	24%	8%	–	0%	14%	5.17	–	–
